Among the data in PubChem BioAssay (NCI) are TGI and GI50 values, retold here.

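Five concentrations, 48 hours, 96-well plates. Here, GI50 denotes the concentration required for 50% inhibition of growth. TGI: total growth inhibition.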

What all share (experiment): NCI-60 cell line screen, 48 h
Test [1] has as its system A549 NSCLC.
Test [2] concerns HCT-15 colon.
Test [3] relates to HT29 colon.
In test [4] the test system is SR leukemia.
In test [5] the test system is T-47D breast.

Regarding `Cc1nc(-c2cc3cc([N+](=O)[O-])ccc3oc2=O)cs1`, the TGI in test [1], in test [2], in test [3], in test [4] and in test [5] was over 100 µM each time.

As for `CC(C)=CCC/C(C)=C/C=C/C(C)=C/C=C/C(C)=C/C=C/C=C(C)/C=C/C=C(C)/C=C/[C@H]1C(C(C)(C)O)CC[C@]1(C)O` (stereo not given in full), the TGI was 51.8 µM in test [2], 86.2 µM in test [3], 54.4 µM in test [4] and over 100 µM in test [5].

`CCOC(=O)N/N=C(/N)c1cccc([N+](=O)[O-])c1`: the TGI in test [1], in test [2], in test [3], in test [4] and in test [5] was over 100 µM each time.

As for `CCOC(=O)c1cc(C(O)P2(=O)N(CC(C)(C)C)[C@@H]3CCCC[C@H]3N2CC(C)(C)C)cn1C(=O)OC(C)(C)C` (stereo not given in full), the TGI in test [1] was 38.8 µM; in test [2], 36 µM; in test [3], 26.7 µM; in test [4], 25.6 µM; in test [5] it was over 100 µM.

As to `Cc1cc(S(=O)(=O)N=C2N(Cc3ccccc3)CCN2Cc2ccccc2)c(S)cc1Cl`, the TGI in test [1], in test [2], in test [3], in test [4] and in test [5] was over 100 µM throughout.

Consider `O=C(O)c1ccc([N+](=O)[O-])c2cc3cnccc3nc12`, for which the TGI in test [2] is 45 µM; in test [3], 57.3 µM; in test [4], over 100 µM; in test [5], 58.6 µM.

In the case of `CNc1ccc(C(=O)CC(O)CCC(C)C2OC(=O)CC(O)CC(=O)CC(O)CC(O)CC(O)CC(O)CC3(O)CC(O)C(C(=O)OC)C(CC(O[C@@H]4O[C@H](C)[C@@H](O)[C@H](N)[C@@H]4O)/C=C/C=C/C=C/C=C/C=C/C=C/C=C/C2C)O3)cc1` (stereo not given in full), the GI50 is 4.9 µM in test [2], 3.63 µM in test [3], 2.33 µM in test [4] and 3.37 µM in test [5]. The TGI in test [2] is over 100 µM; in test [3], 24.7 µM; in test [4], 5.47 µM; in test [5], over 100 µM.

Turning to `COc1ccc(C2OC[C@H]3O[C@@H](OCc4ccccc4)[C@H](O)[C@@H](O)[C@@H]3O2)cc1` (stereo not given in full), the TGI in test [1], in test [2], in test [3] and in test [4] was over 100 µM throughout.

For `COc1cc(C(=O)N(Cc2cccnc2)C(=S)N(Cc2cccnc2)C(=O)c2cc(OC)c(OC)c(OC)c2)cc(OC)c1OC`, the TGI in test [1], in test [2], in test [3], in test [4] and in test [5] was over 100 µM throughout.

For `CC1(C)NC2C(=O)c3c([nH]c4ccccc34)[C@]3(C)CCC1CC23` (stereo not given in full), the TGI was over 100 µM in test [1]; over 100 µM in test [2]; over 100 µM in test [3]; over 100 µM in test [4]; 90.8 µM in test [5].

On to `CCOc1cn(C2CC(O)C(CO)O2)c(=O)[nH]c1=O` (stereo not given), for which the TGI in test [1], in test [2], in test [3] and in test [5] was over 100 µM throughout.

Take `COc1cc(/C=C2/C[C@H]3[C@@H]4CC=C5C[C@@H](O)CC[C@]5(C)[C@H]4CC[C@]3(C)NC2=O)cc(OC)c1OC`: the TGI in test [1] is over 100 µM; in test [2] it was over 59.5 µM; in test [3], over 80.7 µM; in test [4] it was over 100 µM; in test [5], over 100 µM.

For `O=C(NI1OC(=O)c2ccccc21)c1ccc(Cl)cc1`, the TGI in test [1], in test [2], in test [3] and in test [5] was over 100 µM throughout.

For the compound `NC(N)=NCCC[C@H](N)C(=O)NCC(=O)N[C@@H](CC(=O)O)c1ncc(NC(=O)C(F)(F)F)o1`, the TGI in test [1], in test [2], in test [3] and in test [5] was over 25 µM throughout.

As to `CCCCN1C(=O)N(c2ccc(OCC)cc2)C2N(CCCC)C1C(C)(C)C2(C)C` (stereo not given), the TGI in test [1], in test [2], in test [3] and in test [5] was over 100 µM each time.

For the compound `O=C1/C(=N/O)Cc2c(Br)ccc(Br)c21`, the TGI was over 100 µM in test [2], over 100 µM in test [3], 74.4 µM in test [4] and over 100 µM in test [5].

As to `COC[C@@H](C[C@H]1O[C@@](O)([C@H](O)[C@@H]2C[C@H](OC)[C@@H](O)CC/C=C(C)/C=C/[C@@H](O[C@@H]3O[C@@H](C)[C@H](OC)[C@@H](O)[C@@H]3O)[C@H](C)/C=C(C)/C=C(C)/C=C(\C)C(=O)O2)[C@H](C)[C@@H](O)[C@H]1C)O[C@H]1C[C@](C)(O)[C@@H](O[C@H]2C[C@@H](OC)[C@H](O)[C@@H](C)O2)C(C)O1` (stereo not given in full), the TGI in test [1], in test [2], in test [3] and in test [5] was over 100 µM each time.

For the compound `CC(=O)OC(/C=C/c1ccccc1)=C(OC(C)C)/C1=C(\c2ccccc2)SCCCSC1=O`, the TGI in test [1], in test [2] and in test [3] was over 100 µM each time.

Take `OCC(O)COCn1nncc1Cn1ncc2c(SCc3ccccc3)ncnc21` (stereo not given): the TGI in test [1], in test [2], in test [3] and in test [5] was over 100 µM in each case.

Regarding `CC12C(=O)CC(CC1=O)C2(C)C`, the TGI in test [1], in test [2], in test [3] and in test [5] was over 100 µM in each case.

As to `Cc1c(S(=O)(=O)/N=C(\NO)Nc2ccc(Cl)c(Cl)c2)sc2ccc(Cl)cc12`, the TGI in test [1] is 68.8 µM; in test [2], 35.7 µM; in test [3], 29.3 µM; in test [5], 36.7 µM.

As for `COc1cc(Cn2c3c(c4cc(O)ccc42)Cc2ccccc2C3=O)cc(OC)c1`, the TGI in test [1] was over 100 µM; in test [2], over 100 µM; in test [3], over 100 µM; in test [4], 53.3 µM.

As to `COc1ccc(C(=C(Cl)c2ccccc2)c2ccc(OC)cc2)cc1`, the TGI in test [1], in test [2], in test [3] and in test [5] was over 100 µM throughout.

As for `Cc1ccc(-c2c(C#N)c(-c3ccc(Cl)cc3)c(C#N)c(=O)n2NS(=O)(=O)c2ccc(C)cc2)cc1`, the TGI in test [1] is 82.3 µM; in test [2], over 100 µM; in test [3], over 100 µM.
